Experimental findings from patent publication EP0068268A1, “Enhancer of anti-tumour effect” (Yamasa Shoyu Kabushiki Kaisha, priority 1981, dated 1983) are described below.

Structures are written as SMILES. Where two headings read alike, the source gives them in different places.

Series [1] has as its system EMT-6 tumors. The series can be described thus: Radiosensitizing effect on experimental tumors in mice (cure percentages and TCD50, Experiment 3). In kind it is in vivo, BALB/c-strain female mice. Particulars: for TCD50: 100 mg/kg intraperitoneally after 32 MeV electron beam irradiation, control 2400; for Cure number/Number treated (%) / Cure number/Number treated: 100 mg/kg intraperitoneally after irradiation; for Cure number/Number treated (%): cure percentage; for Cure number/Number treated: observation longer than 90 days; for TCD50 (ratio): ratio to control (1.0). The method, then:
EMT-6 tumor cells ([…]) were inoculated intradermally into the right thighs of BALB/c-strain female mice (8 weeks old). When the tumor sizes reached 5.5 to 8.0 mm after inoculation of the tumor cells, irradiation was locally carried out with 1,000 rad to 2,700 rad of 32 MeV electron beam under no anesthesia, and thereafter 3'-dAdo and N^6-butyryl-3'-dAdo, each dissolved in physiological saline solution, were administered intraperitoneally in a dose of 100 mg/kg. After the treatments, observation was continued for longer than 90 days, and the cure percentages were determined for comparison with the control group. [formula] [formula]

A further series in a line: Acute toxicity test. Also on record: species or system ICR mice. To be noted: mouse, in vivo, ip. The method, then:
Various quantities of N -butyryl-3'-dAdo were administered intraperitoneally to ICR mice (male, 8-weeks old, 10 mice for each group) in doses of 250 mg to 1,000 mg/kg, and the mice were subjected to observation for a week.

The test system of series [2] is EMT-6 tumors. The series can be described thus: Enhancement of the effect of anti-tumor agents on experimental tumors in mice (Experiment 5). In kind it is in vivo, BALB/c-strain mice. Particulars: 14th day after treatment. The protocol: EMT-6 tumor cells (1 x 10^6) were inoculated intradermally into the right thighs of BALB/c-strain mice (8 weeks old). On the 12th day after inoculation of the tumor cells and thereafter, each chemical in a physiological saline solution was administered intrapenitoneally to each mouse four times a week in the indicated doses for respective agents. The pharmaceutical agents of the present invention were administered one hour after administration of the anti-tumor agents. After commencement of the treatment with pharmaceutical agents, the tumor sizes were measured every other day and compared with those of the control group.

Another series has as its system RIF1 tumors. As to the kind of experiment: Radiosensitizing effect on experimental tumors in mice (tumor size after irradiation, Experiment 4). The class given is in vivo, C3H/Heston-strain female mice. Particulars: for Mean tumor diameter (mm): n=7; for Sensitizing effect: relative to irradiation alone. The method, then:
RIF1 tumor cells ([…]) were inoculated intradermally into the right thighs of C3H/Heston-strain female mice (8 weeks old). When the tumor sizes reached 6.0 to 10.0 mm after inoculation of the tumor cells, irradiation was carried out with 2,500 rad/min. of an electron beam, and thereafter N^6-acetyl-3'-dAdo, N^6-butyryl-3'-dAdo, N^6-hexanoyl-3'-dAdo, and N - octanoyl-3'-dAdo, each dissolved in physiological saline solution, were administered intraperitoneally in a dose of 100 mg/kg. After the treatments, the tumor sizes in terms of diameters in three-axial directions were measured on the 10th day and the 20th day (9th day and the 21st day only in case of N^6-butyryl-3'-dAdo).

Series [3] concerns Chinese hamster-HA-1 cells. As to the kind of experiment: Radiosensitizing effect on the tumor cells in culture (PLDR inhibition, colony forming ability after X-rays). The class given is cell-based. The protocol:
Cells under stationary phase, prepared by planting 2 x 10^5 cells/well of Chinese hamster-HA-1 cells in a multi-well dish and exchanging cultural medium every day starting on the third day and thereafter were irradiated with 1,000 R of X-rays. Immediately after radiation, N6-butyryl-3'-dAdo in Hanks' balanced salt solution were administered. Then, after elapse of various times, the cells were taken off with trypsin, and a suitable number of cells were transferred into petri dishes for testing colony forming ability and plating efficiencies. The percentages of survival were calculated with corrections by the plating efficiencies with the pharmaceutical agents alone.

Series [4] deals with EMT-6 tumors. As to the kind of experiment: Radiosensitizing effect on experimental tumor in mice (tumor size after local irradiation, Experiment 2). The class given is in vivo, BALB/c-strain female mice. To be noted: for Mean tumor diameter (mm): 1,500 rad 32 MeV electron beam, n = 9; for Sensitizing effect: diameter ratio with agent / diameter ratio with irradiation alone. The protocol: EMT-6 tumor cells (2 x 10^5) were inoculated intradermally into the right thighs of BALB/c-strain female mice (8 weeks old, 6 or more mice for each group). When the tumor size reached 5.5 to 7.5 mm in diameter after inoculation of the tumor cells, local irradiation with a 32 MeV electron beam was carried out at 1,500 rad under no anesthesia and thereafter N^6-butyryl-3'-dAdo dissolved in physiological saline solution, was administered intraperitoneally to each mouse in 100 mg/kg. On the 9th day and 20th day after these treatments, t tumor sizes were measured in tri-dimensional diameters, and compared with the control group with respect to the following items: [formula] [formula] The results are shown in Table 2, in which "cure" means that the tumors completely vanished during the observation period.

Setting [5] is: 10th day after treatment, 2500 rad, then 100 mg/kg intraperitoneally.
The mark [6] stands for this setting: 20th day after treatment, 2500 rad, then 100 mg/kg intraperitoneally.
[7] abbreviates: 20th day after treatment, but 21st day for this compound.
The mark [8] stands for this setting: column head 10th day after treatment, but 9th day for this compound.
[9] abbreviates: FT-207 100mg/kg x 7 plus enhancer 50mg/kg x 7.

For `Nc1ncnc2c1ncn2[C@@H]1O[C@H](CO)C[C@H]1O` [3'-dAdo, 3'-deoxyadenosine, reference compound], the TCD50 with EMT-6 tumors [1] is on record as 1600. Also, the “Cure number/Number treated (%)” value in the series with EMT-6 tumors [1] (1,000 rad) came out at 17%; with EMT-6 tumors [1] (1,500 rad), 48%; with EMT-6 tumors [1] (2,100 rad) it was 79%; in the series on EMT-6 tumors [1] (2,700 rad), 67%. Also, the “Cure number/Number treated” value in the series with EMT-6 tumors [1] (1,000 rad) was 3/18; in the series with EMT-6 tumors [1] (1,500 rad) it was 14/29; in the series with EMT-6 tumors [1] (2,100 rad) it was 11/14; in the series on EMT-6 tumors [1] (2,700 rad), 10/15. In the series on EMT-6 tumors [1], the “TCD50 (ratio)” value came out at 0.67. The LD50 at 168 h in “Acute toxicity test” (intraperitoneally, ICR mice male, observation for a week, read-out: LD50) came out at 280 mg/kg.
Regarding `O=c1[nH]c(=O)n(C2CCCO2)cc1F` (stereo not drawn) [FT-207, 1-(2-tetrahydrofuryl)-5-fluorouracil, reference compound], the “Diameter ratio, value in brackets (relative to control = 1.00)” value in the series with EMT-6 tumors [2] (anti-tumor agent alone, 100mg/kg x 7) came to 0.76. The “Mean tumor diameter (mm)” value in the series on EMT-6 tumors [2] (anti-tumor agent alone, 100mg/kg x 7 intraperitoneally, n = 4) amounted to 7.80±1.64 mm.
On to `CC(=O)Nc1ncnc2c1ncn2[C@@H]1O[C@H](CO)C[C@H]1O` [N^6-acetyl-3'-dAdo], for which the Diameter ratio is on record as 1.12±0.06 in the series with RIF1 tumors (setting [5]) and 1.49±0.06 in the series on RIF1 tumors (setting [6]). Moreover, the “Mean tumor diameter (mm)” value with RIF1 tumors (setting [5]) is given as 7.86±0.55 mm; in the series with RIF1 tumors (setting [6]), 10.39±0.51 mm. For the same compound, the figures for the Sensitizing effect in the series on RIF1 tumors (10th day after treatment) and in the series with RIF1 tumors (20th day after treatment) were 0.95 and 0.84, respectively.
For `CCCC(=O)Nc1ncnc2c1ncn2[C@@H]1O[C@H](CO)C[C@H]1O` [N^6-butyryl-3'-dAdo], in series [3] (40 µg/ml given immediately after 1,000 R of X-rays, stationary phase cells, 1 hour after irradiation), the “Plating efficiency (%) After 1 hour” value stood at 1.4%. In addition, in series [3] (40 µg/ml given immediately after 1,000 R of X-rays, stationary phase cells, 4 hours after irradiation), the “Plating efficiency (%) After 4 hours” value was determined as 2.2%. For the same compound, the “Plating efficiency (%) After 7 hours” value in series [3] (40 µg/ml given immediately after 1,000 R of X-rays, stationary phase cells, 7 hours after irradiation) is on record as 2.4%. The “inhibition of repair (PLDR) after irradiation with X-rays” value in series [3] (result in words, from Table 1) is given as “inhibit repair (PLDR)”. The “toxicity, as examined by plating efficiencies” value in series [3] (result in words, agent alone) is “Substantially no toxicity was observed”. Also, the “Mean tumor diameter (mm)” value in the series with EMT-6 tumors [4] (9 days after treatment, then 100 mg/kg intraperitoneally) amounted to 5.36±1.13 mm; in the series with EMT-6 tumors [4] (20 days after treatment, then 100 mg/kg intraperitoneally) it was 0.0±0.0 mm; in the series with RIF1 tumors (20th day after treatment, but 21st day for this compound, 2500 rad, then 100 mg/kg intraperitoneally), 10.28±0.36 mm; in the series on RIF1 tumors (column head 10th day after treatment, but 9th day for this compound, 2500 rad, then 100 mg/kg intraperitoneally), 6.71±0.63 mm; in the series on EMT-6 tumors [2] (FT-207 100mg/kg x 7 plus enhancer 50mg/kg x 7 given one hour later, n = 5) it was 6.72±1.69 mm; in the series with EMT-6 tumors [2] (enhancer alone, 50mg/kg x 7 intraperitoneally, n = 5) it was 9.92±2.45 mm. In addition, the Diameter ratio in the series on EMT-6 tumors [4] (9 days after treatment, 1,500 rad, then 100 mg/kg intraperitoneally) is listed as 0.83±0.18; in the series on RIF1 tumors (setting [7]), 1.35±0.08; with RIF1 tumors (setting [8]) it was 0.90±0.08. Moreover, the Sensitizing effect with EMT-6 tumors [4] (9 days after treatment) is listed as 0.86; in the series on EMT-6 tumors [4] (20 days after treatment), 0.00; with RIF1 tumors (setting [7]), 0.76; in the series with RIF1 tumors (setting [8]), 0.76. Moreover, the Cured cases with EMT-6 tumors [4] (20 days after treatment, cure = tumors completely vanished during the observation period, 1,500 rad + 100 mg/kg i.p.) is listed as 9/9. The TCD50 in the series on EMT-6 tumors [1] came to 1080. Moreover, the “Cure number/Number treated (%)” value in the series on EMT-6 tumors [1] (1,000 rad) was found to be 40%; with EMT-6 tumors [1] (1,500 rad), 65%; with EMT-6 tumors [1] (2,100 rad), 93%; in the series on EMT-6 tumors [1] (2,700 rad), 100%. Further, the “Cure number/Number treated” value in the series with EMT-6 tumors [1] (1,000 rad) is given as 6/15; with EMT-6 tumors [1] (1,500 rad), 13/20; in the series on EMT-6 tumors [1] (2,100 rad), 14/15; in the series on EMT-6 tumors [1] (2,700 rad) it was 16/16. In addition, in the series with EMT-6 tumors [1], the “TCD50 (ratio)” value worked out at 0.45. In addition, the “Diameter ratio (mm)” value in the series with EMT-6 tumors [2] (setting [9]) was determined as 0.97±0.23; with EMT-6 tumors [2] (enhancer alone, 50mg/kg x 7), 1.36±0.32. For the same compound, the “Diameter ratio, value in brackets (relative to control = 1.00)” value is recorded as 0.62 with EMT-6 tumors [2] (setting [9]) and 0.87 in the series on EMT-6 tumors [2] (enhancer alone, 50mg/kg x 7). Further, in the series with EMT-6 tumors [2] (ratio in combination / (ratio anti-tumor agent alone x ratio enhancer alone), FT-207 100mg/kg x 7 plus enhancer 50mg/kg x 7), the Enhancing effect is reported as 0.94. The LD50 at 168 h in “Acute toxicity test” worked out at 710 mg/kg.
On to `CCCCCC(=O)Nc1ncnc2c1ncn2[C@@H]1O[C@H](CO)C[C@H]1O` [N^6-hexanoyl-3'-dAdo], for which the Diameter ratio in the series on RIF1 tumors (setting [5]) was 1.11±0.05; with RIF1 tumors (setting [6]) it was 1.46±0.05. Also, the “Mean tumor diameter (mm)” value came out at 7.90±0.47 mm in the series on RIF1 tumors (setting [5]) and 10.37±0.42 mm in the series on RIF1 tumors (setting [6]). Moreover, the Sensitizing effect was found to be 0.94 in the series with RIF1 tumors (10th day after treatment) and 0.82 in the series with RIF1 tumors (20th day after treatment).
Consider `CCCCCCCC(=O)Nc1ncnc2c1ncn2[C@@H]1O[C@H](CO)C[C@H]1O` [N^6-octanoyl-3'-dAdo], for which the Diameter ratio with RIF1 tumors (setting [5]) stood at 1.04±0.04; with RIF1 tumors (setting [6]), 1.33±0.02. For the same compound, the “Mean tumor diameter (mm)” value in the series with RIF1 tumors (setting [5]) came to 7.50±0.37 mm; with RIF1 tumors (setting [6]), 9.61±0.46 mm. Moreover, the Sensitizing effect in the series with RIF1 tumors (10th day after treatment) is recorded as 0.88; in the series on RIF1 tumors (20th day after treatment) it was 0.75.

By LD50 is commonly meant the dose expected to kill half of the subjects tested.
